# Values of other authors in PubChem BioAssay AID493017 (Abbott Labs, 2003).
# Biological target: Platelet-derived growth factor receptor alpha (Homo sapiens) (UniProt P16234)
# Experiment: PubChem AID 493017
# Settings: WOMBAT literature affinities, multiple human targets; PDGFR; gene PDGFRA; NCBI gene 5156
# Platelet-derived growth factor receptor alpha (Homo sapiens), sequence (P16234 whole entry, looked up): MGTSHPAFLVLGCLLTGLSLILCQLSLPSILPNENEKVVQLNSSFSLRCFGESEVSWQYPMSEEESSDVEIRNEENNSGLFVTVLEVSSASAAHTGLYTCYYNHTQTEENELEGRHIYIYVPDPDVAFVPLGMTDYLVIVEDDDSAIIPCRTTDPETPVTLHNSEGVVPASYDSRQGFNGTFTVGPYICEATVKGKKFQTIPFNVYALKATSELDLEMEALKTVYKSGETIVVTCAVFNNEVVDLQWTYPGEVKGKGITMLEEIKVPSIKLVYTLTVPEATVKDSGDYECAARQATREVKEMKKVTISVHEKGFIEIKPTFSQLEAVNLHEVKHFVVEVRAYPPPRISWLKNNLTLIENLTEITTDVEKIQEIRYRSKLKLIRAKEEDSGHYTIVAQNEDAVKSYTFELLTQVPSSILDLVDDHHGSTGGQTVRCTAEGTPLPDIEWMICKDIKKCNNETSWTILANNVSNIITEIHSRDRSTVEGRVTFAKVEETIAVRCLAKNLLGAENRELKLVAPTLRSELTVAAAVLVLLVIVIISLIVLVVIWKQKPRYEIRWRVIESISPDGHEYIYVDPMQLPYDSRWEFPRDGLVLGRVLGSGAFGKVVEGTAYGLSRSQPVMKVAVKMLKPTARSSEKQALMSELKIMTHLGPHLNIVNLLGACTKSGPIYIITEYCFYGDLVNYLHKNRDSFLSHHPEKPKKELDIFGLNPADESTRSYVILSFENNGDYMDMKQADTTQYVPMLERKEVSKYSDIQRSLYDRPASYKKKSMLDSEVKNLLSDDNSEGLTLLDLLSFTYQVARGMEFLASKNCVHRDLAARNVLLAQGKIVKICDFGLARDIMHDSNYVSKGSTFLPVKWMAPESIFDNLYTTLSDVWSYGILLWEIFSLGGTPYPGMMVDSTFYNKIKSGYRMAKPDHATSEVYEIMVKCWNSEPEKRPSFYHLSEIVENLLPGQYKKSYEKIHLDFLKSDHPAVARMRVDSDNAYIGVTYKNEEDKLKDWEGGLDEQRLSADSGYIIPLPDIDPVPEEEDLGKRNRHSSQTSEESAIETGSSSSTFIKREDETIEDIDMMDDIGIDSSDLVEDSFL
row,IC50 [nM],SMILES
1,50,COc1cc2nccc(Oc3ccc(NC(=O)c4ccc(C(C)(C)C)cc4)cc3)c2cc1OC
2,6900,COc1cc2nccc(Oc3cccc(C)c3)c2cc1OC
3,4400,COc1cc2nccc(Oc3cccc(OC)c3OC)c2cc1OC
4,7200,COc1cc2nccc(Oc3ccc(C(=O)c4ccccc4C(F)(F)F)cc3)c2cc1OC
5,1700,COc1cc2nccc(Oc3ccc(C(=O)c4ccc(C)cc4)cc3)c2cc1OC
6,760,COc1cc2nccc(Oc3ccccc3)c2cc1OC
7,15000,COc1cc2nccc(Oc3ccc(C(C)=O)cc3)c2cc1OC
8,3600,COc1cc2nccc(Oc3ccc(NC(=O)c4ccc(C(C)=O)cc4)cc3)c2cc1OC
9,440,COc1cccc(Oc2ccnc3cc(OC)c(OC)cc23)c1
10,150,CCCCc1ccc(C(=O)c2ccc(Oc3ccnc4cc(OC)c(OC)cc34)cc2)cc1
11,330,COc1cc2nccc(Oc3ccc(N(C)C(=O)c4ccc(C(C)(C)C)cc4)cc3)c2cc1OC
12,48000,COc1cc2nccc(Oc3ccccc3C(=O)c3ccccc3)c2cc1OC
